Values quoted from earlier work in patent US20210199674A1, “TREATMENT METHOD, ANALYZING DEVICE, AND SURFACE TREATING LIQUID” (ARKRAY, Inc., priority 2019, published 2021).

Details: for acid dissociation constant pKa1: first acidic proton dissociates; for acid dissociation constant pKa4: fourth acidic proton dissociates; for acid dissociation constant pKa2: second acidic proton dissociates; for acid dissociation constant pKa3: third acidic proton dissociates

acid dissociation constant pKa1	acid dissociation constant pKa4	acid dissociation constant pKa2	acid dissociation constant pKa3	SMILES
0.9	9.4	2.0	6.6	O=P(O)(O)OP(=O)(O)O [pyrophosphoric acid]
1.43	10.96	3.05	7.35	O=P(O)(O)CP(=O)(O)O [methylene diphosphonate]
